Test results published in patent US10259807B2, “1-(piperazin-1-yl)-2-([1,2,4]triazol-1-yl)-ethanone derivatives” (Idorsia Pharmaceuticals Ltd., priority 2013, dated 2019).

Experiments:
hERG K channel = biological target: T1, hERG K channel (Homo sapiens, UniProt Q12809); assay: hERG Q-Patch assay; format: cell-based; conditions: CHO cells expressing hERG, K+ tail current 3 min after application, mean of two or three experiments
T1 construct: host or cells: CHO
Method: B) hERG Q-Patch assay: Compounds are evaluated for block of the hERG K channel using CHO cells stably expressing the hERG gene (accession number U04270, bSys, Witterswil. Switzerland) and the Patch robotic platform (Sophion, Ballerup, Denmark) in single-cell mode at room temperature. […] When the cells are ˜80% confluent (every 2-3 days), they are either split for further culture or used for electrophysiology. […] Cells are kept in suspension medium at 32-35° C. in the QPatch robot until use, at which time aliquots are transferred to the extracellular solution (in mM: NaCl 150; KCl 4; CaCl2 1.2; MgCl2 1; HEPES 10; pH 7.4 with NaOH) containing 0.3% v/v DMSO and applied to the test plates. K^+ currents are measured with the patch-voltage-clamp technique in the whole-cell configuration with the internal solution (in […]: KCl, 140; NaCl, 10; MgCl2, 1; HEPES, 10; EGTA, 5; pH=7.2 with KOH). […] K^+tail currents are produced from a holding voltage of −80 mV by a 500-ms depolarization to +20 mV followed by a 500-ms repolarization to −40 mV; tail current amplitudes are measured at the end of the repolarization to −40 mV. The pulse pattern is repeated every 10 sec during the experiment, baseline K^+ current is measured after 3 min in extracellular solution, test-solution containing compound is then applied, and K^+ current in presence of compound is measured 3 minutes after application to the cells.

human CXCR3A = biological target: T2, human CXCR3A (Homo sapiens, UniProt P49682); assay: FLIPR assay (CXCL10-induced calcium signal in CHO-K1 cells); format: cell-based; conditions: CHO-K1 cells expressing human CXCR3A coupled to Galpha(16); CXCL10 agonist 20 nM; mean values
T2 construct: expressed in transfected cells; host or cells: CHO-K1
T2 sequence (P49682 1-368): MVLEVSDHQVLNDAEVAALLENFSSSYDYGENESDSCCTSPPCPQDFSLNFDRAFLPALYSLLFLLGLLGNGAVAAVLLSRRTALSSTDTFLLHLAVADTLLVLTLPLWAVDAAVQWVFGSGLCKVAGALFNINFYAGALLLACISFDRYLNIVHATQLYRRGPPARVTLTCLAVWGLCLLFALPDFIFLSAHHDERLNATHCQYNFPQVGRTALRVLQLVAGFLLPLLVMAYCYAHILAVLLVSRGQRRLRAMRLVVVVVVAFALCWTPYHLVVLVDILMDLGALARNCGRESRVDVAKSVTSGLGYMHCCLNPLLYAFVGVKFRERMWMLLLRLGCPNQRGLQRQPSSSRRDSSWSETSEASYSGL
Method: A) FLIPR assay: The bioactivity of compounds is tested in a fluorometric imaging plate reader (FLIPR: Molecular Devices) using engineered CHO-K1 cells expressing the human CXCR3A (GenBank: AY242128) coupled to a G protein (Galpha(16)). Cells are plated the day prior to bioassay in F12 medium supplemented with 10% FBS and G418 and hygromycin antibiotics to maintain recombinant selection. […] Cells are washed free of excess dye and 60 microliter of wash buffer is added. Stock solutions of test compounds are made up at a concentration of 10 mM in DMSO, and serially diluted in dilution buffer to concentrations required for inhibition dose response curves. After a 10 minute incubation period at 37° C., 10 microliters of each compound dilution are transferred from a compound plate to the plate containing the recombinant cells in the FLIPR instrument according to the manufacturer's instructions. Following basal readings, 10 microliter CXCL10 agonist at a concentration of 20 nM (from Peprotech) is added, again using the FLIPR instrument. Changes in fluorescence are monitored before and after addition of the test compounds. Emission peak values above base level after CXCL10 addition are exported after base line subtraction. The program XLfit is used to fit the data to a single site dose response curve and to calculate IC50 values. The calculated IC50 values may fluctuate depending on the daily assay performance. Fluctuations of this kind are known to those skilled in the art.

T1 sequence (Q12809 whole entry): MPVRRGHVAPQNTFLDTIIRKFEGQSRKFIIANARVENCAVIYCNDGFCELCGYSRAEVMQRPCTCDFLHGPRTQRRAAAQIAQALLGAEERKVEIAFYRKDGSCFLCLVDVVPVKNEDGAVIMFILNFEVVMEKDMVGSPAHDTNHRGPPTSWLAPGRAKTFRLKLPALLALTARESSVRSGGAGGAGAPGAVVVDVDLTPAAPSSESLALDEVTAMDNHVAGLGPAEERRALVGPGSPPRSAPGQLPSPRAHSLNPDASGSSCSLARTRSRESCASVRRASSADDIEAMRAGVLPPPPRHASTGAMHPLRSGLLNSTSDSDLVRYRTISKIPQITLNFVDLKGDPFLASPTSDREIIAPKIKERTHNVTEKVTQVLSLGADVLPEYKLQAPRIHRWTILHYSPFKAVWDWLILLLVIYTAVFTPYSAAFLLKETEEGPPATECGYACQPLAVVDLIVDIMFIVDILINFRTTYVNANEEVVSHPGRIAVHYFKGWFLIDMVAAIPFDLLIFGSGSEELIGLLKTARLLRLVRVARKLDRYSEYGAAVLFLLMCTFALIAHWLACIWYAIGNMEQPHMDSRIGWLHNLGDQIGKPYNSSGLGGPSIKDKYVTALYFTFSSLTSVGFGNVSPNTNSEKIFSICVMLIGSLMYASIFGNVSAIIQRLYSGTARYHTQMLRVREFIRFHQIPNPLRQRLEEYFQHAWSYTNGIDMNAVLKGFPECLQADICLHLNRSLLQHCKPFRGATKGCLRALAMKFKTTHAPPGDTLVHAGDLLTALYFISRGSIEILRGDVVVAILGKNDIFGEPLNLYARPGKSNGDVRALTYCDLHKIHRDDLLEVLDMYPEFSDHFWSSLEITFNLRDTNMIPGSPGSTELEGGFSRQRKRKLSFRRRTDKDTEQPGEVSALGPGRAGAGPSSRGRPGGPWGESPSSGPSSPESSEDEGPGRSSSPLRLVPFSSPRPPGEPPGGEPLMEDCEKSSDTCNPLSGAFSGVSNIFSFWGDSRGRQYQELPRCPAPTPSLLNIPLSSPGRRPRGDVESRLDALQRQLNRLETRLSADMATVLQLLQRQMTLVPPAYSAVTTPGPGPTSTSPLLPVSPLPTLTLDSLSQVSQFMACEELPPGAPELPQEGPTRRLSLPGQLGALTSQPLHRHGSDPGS

| Compound | % block (hERG K channel; concentration 300 nM) [%] | % block (hERG K channel; concentration 3000 nM) [%] | IC50 (human CXCR3A) [nM] |
| --- | --- | --- | --- |
| Cc1nc(C)n(CC(=O)N2CCN(c3sc(C(F)(F)F)nc3-c3ccc4c(c3)OCO4)C[C@H]2C)n1 [Example 13, 1-[(R)-4-(4-Benzo[1,3]dioxol-5-yl-2-trifluoromethyl-thiazol-5-yl)-2-methyl-piperazin-1-yl]-2-(3,5-dimethyl-[1,2,4]triazol-1-yl)-ethanone] | 9 | 39 | 76 |
| Cc1ncc(-c2nc(C(F)(F)F)sc2N2CCN(C(=O)Cn3nc(C)nc3C)[C@H](C)C2)cn1 [Example 23, 2-(3,5-Dimethyl-[1,2,4]triazol-1-yl)-1-{(R)-2-methyl-4-[4-(2-methyl-pyrimidin-5-yl)-2-trifluoromethyl-thiazol-5-yl]-piperazin-1-yl}-ethanone] | −1 | −2 |  |
| Cc1nc(C)n(CC(=O)N2CCN(c3sc(C(F)(F)F)nc3-c3ccc(C#N)cc3)C[C@H]2C)n1 [Example 5, 4-(5-{(R)-4-[2-(3,5-Dimethyl-[1,2,4]triazol-1-yl)-acetyl]-3-methyl-piperazin-1-yl}-2-trifluoromethyl-thiazol-4-yl)-benzonitrile] |  |  | 24 |
| Cc1nc(C(C)(C)O)nn1CC(=O)N1CCN(c2sc(C(F)(F)F)nc2-c2cnc(C(F)(F)F)nc2)C[C@H]1C [Example 48, 2-[3-(1-Hydroxy-1-methyl-ethyl)-5-methyl-[1,2,4]triazol-1-yl]-1-{(R)-2-methyl-4-[2-trifluoromethyl-4-(2-trifluoromethyl-pyrimidin-5-yl)-thiazol-5-yl]-piperazin-1-yl}-ethanone] | 1 | 2 | 4.7 |
| [2H]C([2H])(C(=O)N1CCN(c2sc(C(F)(F)F)nc2-c2cnc(OCC)nc2)C[C@H]1C)n1nc(C)nc1C [Example 41, 2-(3,5-Dimethyl-[1,2,4]triazol-1-yl)-1-{(R)-4-[4-(2-ethoxy-pyrimidin-5-yl)-2-trifluoromethyl-thiazol-5-yl]-2-methyl-piperazin-1-yl}-2,2-dideuterium-ethanone] |  |  | 5.6 |
| Cc1nc(C)n(CC(=O)N2CCN(c3sc(C(F)(F)F)nc3-c3cnc(OCC(F)(F)F)nc3)C[C@H]2C)n1 [Example 28, 2-(3,5-Dimethyl-[1,2,4]triazol-1-yl)-1-((R)-2-methyl-4-{4-[2-(2,2,2-trifluoro-ethoxy)-pyrimidin-5-yl]-2-trifluoromethyl-thiazol-5-yl}-piperazin-1-yl)-ethanone] | 0 | 6 | 2.8 |
| Cc1nc(C)n(CC(=O)N2CCN(c3sc(C(F)(F)F)nc3-c3ccc(OC(C)C)cc3)C[C@H]2C)n1 [Example 2, 2-(3,5-Dimethyl-[1,2,4]triazol-1-yl)-1-{(R)-4-[4-(4-isopropoxy-phenyl)-2-trifluoromethyl-thiazol-5-yl]-2-methyl-piperazin-1-yl}-ethanone] | 7 | 38 | 16 |
| CCOc1ncc(-c2nc(C(F)(F)F)sc2N2CCN(C(=O)Cn3nc(CN(C)C)nc3C)[C@H](C)C2)cn1 [Example 17, 2-(3-Dimethylaminomethyl-5-methyl-[1,2,4]triazol-1-yl)-1-{(R)-4-[4-(2-ethoxy-pyrimidin-5-yl)-2-trifluoromethyl-thiazol-5-yl]-2-methyl-piperazin-1-yl}-ethanone] | 13 | 26 | 20 |
| Cc1nc(C)n(CC(=O)N2CCN(c3sc(C(F)(F)F)nc3-c3cnc(C(C)(F)F)nc3)C[C@H]2C)n1 [Example 52, 1-((R)-4-{4-[2-(1,1-Difluoro-ethyl)-pyrimidin-5-yl]-2-trifluoromethyl-thiazol-5-yl}-2-methyl-piperazin-1-yl)-2-(3,5-dimethyl-[1,2,4]triazol-1-yl)-ethanone] | 2 | 6 | 4.5 |
| CCOc1ncc(-c2nc(C(F)(F)F)sc2N2CCN(C(=O)Cn3nc(C)nc3C)[C@H](C)C2)c(OCC)n1 [Example 29, 1-{(R)-4-[4-(2,4-Diethoxy-pyrimidin-5-yl)-2-trifluoromethyl-thiazol-5-yl]-2-methyl-piperazin-1-yl}-2-(3,5-dimethyl-[1,2,4]triazol-1-yl)-ethanone] | −2 | 0 | 4.5 |
| COc1ccc(-c2nc(C(F)(F)F)sc2N2CCN(C(=O)Cn3nc(C)nc3C)[C@H](C)C2)c(F)c1 [Example 11, 2-(3,5-Dimethyl-[1,2,4]triazol-1-yl)-1-{(R)-4-[4-(2-fluoro-4-methoxy-phenyl)-2-trifluoromethyl-thiazol-5-yl]-2-methyl-piperazin-1-yl}-ethanone] | 10 | 19 | 45 |
| Cc1nc(C)n(CC(=O)N2CCN(c3sc(C(F)(F)F)nc3-c3cnc(OCCN(C)C)nc3)C[C@H]2C)n1 [Example 26, 1-((R)-4-{4-[2-(2-Dimethylamino-ethoxy)-pyrimidin-5-yl]-2-trifluoromethyl-thiazol-5-yl}-2-methyl-piperazin-1-yl)-2-(3,5-dimethyl-[1,2,4]triazol-1-yl)-ethanone] | −1 | −8 | 41 |
| Cc1nc(C)n(CC(=O)N2CCN(c3sc(C(F)(F)F)nc3-c3ccc4c(c3)CCO4)C[C@H]2C)n1 [Example 40, 1-{(R)-4-[4-(2,3-Dihydro-benzofuran-5-yl)-2-trifluoromethyl-thiazol-5-yl]-2-methyl-piperazin-1-yl}-2-(3,5-dimethyl-[1,2,4]triazol-1-yl)-ethanone] | 1 | 25 | 22 |
| CCc1ncc(-c2nc(C(F)(F)F)sc2N2CCN(C(=O)Cn3nc(C)nc3C)[C@H](C)C2)cn1 [Example 43, 2-(3,5-Dimethyl-[1,2,4]triazol-1-yl)-1-{(R)-4-[4-(2-ethyl-pyrimidin-5-yl)-2-trifluoromethyl-thiazol-5-yl]-2-methyl-piperazin-1-yl}-ethanone] | 4 | 8 |  |
| COc1ccc(-c2nc(C(F)(F)F)sc2N2CCN(C(=O)Cn3nc(C)nc3C)[C@H](C)C2)cn1 [Example 16, 2-(3,5-Dimethyl-[1,2,4]triazol-1-yl)-1-{(R)-4-[4-(6-methoxy-pyridin-3-yl)-2-trifluoromethyl-thiazol-5-yl]-2-methyl-piperazin-1-yl}-ethanone] | 4 | 14 |  |
| COc1ccc(-c2nc(C(F)(F)F)sc2N2CCN(C(=O)Cn3nc(C)nc3C)[C@H](C)C2)cc1F [Example 10, 2-(3,5-Dimethyl-[1,2,4]triazol-1-yl)-1-{(R)-4-[4-(3-fluoro-4-methoxy-phenyl)-2-trifluoromethyl-thiazol-5-yl]-2-methyl-piperazin-1-yl}-ethanone] | 7 | 20 | 20 |
| Cc1nc(C)n(CC(=O)N2CCN(c3sc(C(F)(F)F)nc3-c3ccc4c(c3)OCCO4)C[C@H]2C)n1 [Example 14, 1-{(R)-4-[4-(2,3-Dihydro-benzo[1,4]dioxin-6-yl)-2-trifluoromethyl-thiazol-5-yl]-2-methyl-piperazin-1-yl}-2-(3,5-dimethyl-[1,2,4]triazol-1-yl)-ethanone] | 5 | 14 | 31 |
| COc1ncc(-c2nc(C(F)(F)F)sc2N2CCN(C(=O)Cn3nc(C)nc3C)[C@H](C)C2)cn1 [Example 32, 2-(3,5-Dimethyl-[1,2,4]triazol-1-yl)-1-{(R)-4-[4-(2-methoxy-pyrimidin-5-yl)-2-trifluoromethyl-thiazol-5-yl]-2-methyl-piperazin-1-yl}-ethanone] | −6 | −5 |  |
